These results are taken from patent US9938324B2, “FRET-based reagents and methods for identifying anti-HIV compounds” (Cornell University, priority 2012, dated 2018).

For one assay, the system named is HIV-1 EnvNL4-3. In words: smFRET imaging of dually labelled HIV-1 Env on surface-immobilized virions (TIRF). In kind it is biochemical, HIV-1NL4-3. The conditions noted are these: for agonist/antagonist character by smFRET (activation of HIV-1 Env): 100 μM, FIG. 10c, d; for effect of inhibitor on smFRET state distribution of HIV-1 Env: tested at concentrations 10-100-fold above the Kd (100 μM), FIG. 10. As for the experimental part: All HIV-1 virions were generated by transfection of pNL4-3-based plasmids in HEK293T cells. Virus was harvested 24 h post-transfection and concentrated by centrifugation. Dually tagged viruses were site-specifically labelled at each peptide insert simultaneously through incubation with appropriate fluorophore conjugates and labelling enzymes. The viruses were purified away from unbound dye by density-gradient ultracentrifugation. Viruses were immobilized on streptavidin-coated quartz microscope slides, and imaged with a lab-built prism-based TIRF microscope equipped with multiple laser. Donor and acceptor fluorescence were separated with a dichroic filter, and imaged on parallel EMCCD cameras. All analysis was carried out with custom-designed Matlab software.
The tagged Envs (V1-3-Q3/V4-2-A1 and V1-3-A1/V4-2-A1) were subcloned from pNL4-3 into a pNL4-3 construct lacking reverse transcriptase (pNL4-3 ΔRT). Virus for smFRET experiments was generated by co-transfecting HEK293T cells with tagged-Env-containing pNL4-3 ΔRT and a 40-fold excess of wild-type-Env containing pNL4-3 ΔRT. Virus was harvested 24 h post-transfection and concentrated by centrifugation over a 15% sucrose cushion.
All virus labelling reactions were carried out in buffer containing 50 mM HEPES pH7.5, 10 mM MgCl2, 10 mM CaCl2. Virus containing the V1-3-Q3 and V4-2-A1 peptide insertions was labelled by incubation with 0.5 μM AlexaFluor647-cadaverine (Invitrogen), 0.5 μM Cy3-coenzyme A (Cy3-CoA), 0.65 μM transglutaminase (Sigma) (Lin et al., J Am Chem Soc 128, no. 14 (2006): 4542-3), and 5 μM AcpS (Zhou et al., ACS Chem Biol 2, no. 5 (2007): 337-46) for 2 h at 37° C. Alternatively, virus containing the V1-3-A1 and V4-2-A1 peptide insertions was labelled by incubation with 0.5 μM Cy5-CoA, 0.5 μM Cy3-CoA, and 5 μM AcpS for 2 h at 37° C. […]
Fluorescently labelled virus, containing DSPE-PEG2,000-biotin in the viral membrane was immobilized on passivated streptavidin-coated quartz microscope slides and imaged on a lab-built prism-based TIRF microscope. […] Donor and acceptor fluorescence were collected through a high-NA objective, separated with a 650DCXR dichroic filter (Chroma), and imaged on two parallel EMCCD cameras (Photometrics). Movies of surface-immobilized viruses were recorded at 25 frames/s for 40 s at room temperature. […]
All processing and analysis of fluorescence and smFRET trajectories was carried out using custom-designed Matlab (Mathworks) software. Fluorescence trajectories were extracted from the recorded movies and used to calculate FRET efficiency according to FRET=ICy5/(ICy3+ICy5), where ICy5 and ICy3 are the intensities of Cy5 and Cy3 fluorescence, respectively. […]

The target in the next assay is HIV-1 Env (Human immunodeficiency virus type 1 group M subtype B, UniProt P03375). Particulars: cited from earlier work.
Sequence of HIV-1 Env (P03375 33-856): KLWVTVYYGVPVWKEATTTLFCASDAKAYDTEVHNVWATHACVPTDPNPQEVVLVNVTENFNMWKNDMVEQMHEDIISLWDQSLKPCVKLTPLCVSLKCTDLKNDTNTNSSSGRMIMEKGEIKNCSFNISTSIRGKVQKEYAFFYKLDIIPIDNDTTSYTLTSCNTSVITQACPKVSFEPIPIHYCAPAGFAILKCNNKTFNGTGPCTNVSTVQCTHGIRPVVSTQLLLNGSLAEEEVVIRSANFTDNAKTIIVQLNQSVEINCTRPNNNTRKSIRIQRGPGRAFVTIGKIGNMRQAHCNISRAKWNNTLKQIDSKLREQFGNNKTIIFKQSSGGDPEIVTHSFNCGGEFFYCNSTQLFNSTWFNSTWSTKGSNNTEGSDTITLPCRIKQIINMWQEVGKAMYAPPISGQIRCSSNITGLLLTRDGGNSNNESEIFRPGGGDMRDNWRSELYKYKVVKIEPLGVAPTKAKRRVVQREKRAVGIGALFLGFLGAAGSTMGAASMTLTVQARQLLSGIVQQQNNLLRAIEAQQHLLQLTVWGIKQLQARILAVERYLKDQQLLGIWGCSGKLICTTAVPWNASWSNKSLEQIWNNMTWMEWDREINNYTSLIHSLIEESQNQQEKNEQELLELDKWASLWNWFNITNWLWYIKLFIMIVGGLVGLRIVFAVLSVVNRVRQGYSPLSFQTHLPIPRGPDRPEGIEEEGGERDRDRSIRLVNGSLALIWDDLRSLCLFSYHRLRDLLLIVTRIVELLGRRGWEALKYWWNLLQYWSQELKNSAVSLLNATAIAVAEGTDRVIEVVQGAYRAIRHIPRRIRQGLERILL

Regarding `CC1(C)CC(NC(=O)C(=O)Nc2ccc(Cl)cc2)CC(C)(C)N1` [NBD-556], in the assay on HIV-1 EnvNL4-3, the “agonist/antagonist character by smFRET (activation of HIV-1 Env)” value is listed as “clear agonists” and the “effect of inhibitor on smFRET state distribution of HIV-1 Env” value is given as “induced an intermediate-FRET state”.
Consider `CC1(C)CC(NC(=O)C(=O)Nc2ccc(Cl)c(F)c2)CC(C)(C)N1` [JRC-II-191], for which the “inactivation of HIV-1 Env” value on HIV-1 Env is recorded as “inactivate”. For the same compound, in the assay on HIV-1 EnvNL4-3, the “agonist/antagonist character by smFRET (activation of HIV-1 Env)” value is recorded as “clear agonists” and the “effect of inhibitor on smFRET state distribution of HIV-1 Env” value is given as “induced an intermediate-FRET state”.
